Five molecules from BindingDB's records for patent US11401286 (Tetra Discovery Partners, LLC, 2022) can be followed below.

The structures appear in SMILES notation.

For test [1], the target named is Isoform 7 of cAMP-specific 3',5'-cyclic phosphodiesterase 4D (Human, UniProt Q08499). As to the kind of experiment: Kinetic Assay.
Test [2] addresses cAMP-specific 3',5'-cyclic phosphodiesterase 4B [S133D] (Human, UniProt Q07343, S133D). As to the kind of experiment: Kinetic Assay.

cAMP-specific 3',5'-cyclic phosphodiesterase 4B [S133D], sequence (Q07343 whole entry S133D): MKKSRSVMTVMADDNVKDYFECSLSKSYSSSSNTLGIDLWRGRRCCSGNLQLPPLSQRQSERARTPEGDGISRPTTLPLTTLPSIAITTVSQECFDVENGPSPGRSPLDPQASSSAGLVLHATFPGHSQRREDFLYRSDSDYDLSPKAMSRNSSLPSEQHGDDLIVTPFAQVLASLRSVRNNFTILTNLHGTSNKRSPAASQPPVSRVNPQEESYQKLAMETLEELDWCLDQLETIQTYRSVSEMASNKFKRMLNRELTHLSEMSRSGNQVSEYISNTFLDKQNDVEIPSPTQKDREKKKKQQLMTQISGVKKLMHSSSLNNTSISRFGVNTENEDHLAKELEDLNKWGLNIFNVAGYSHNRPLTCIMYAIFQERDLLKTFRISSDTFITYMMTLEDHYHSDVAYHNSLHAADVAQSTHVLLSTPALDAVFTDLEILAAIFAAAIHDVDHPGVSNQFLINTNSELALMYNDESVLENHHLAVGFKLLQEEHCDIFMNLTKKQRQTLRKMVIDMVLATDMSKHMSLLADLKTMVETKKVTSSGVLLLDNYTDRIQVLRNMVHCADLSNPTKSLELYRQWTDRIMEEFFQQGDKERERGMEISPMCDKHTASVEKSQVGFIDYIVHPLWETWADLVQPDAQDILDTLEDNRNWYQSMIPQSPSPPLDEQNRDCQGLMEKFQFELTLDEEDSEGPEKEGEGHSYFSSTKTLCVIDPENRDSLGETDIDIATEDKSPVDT
Isoform 7 of cAMP-specific 3',5'-cyclic phosphodiesterase 4D, sequence (Q08499 as listed by the source): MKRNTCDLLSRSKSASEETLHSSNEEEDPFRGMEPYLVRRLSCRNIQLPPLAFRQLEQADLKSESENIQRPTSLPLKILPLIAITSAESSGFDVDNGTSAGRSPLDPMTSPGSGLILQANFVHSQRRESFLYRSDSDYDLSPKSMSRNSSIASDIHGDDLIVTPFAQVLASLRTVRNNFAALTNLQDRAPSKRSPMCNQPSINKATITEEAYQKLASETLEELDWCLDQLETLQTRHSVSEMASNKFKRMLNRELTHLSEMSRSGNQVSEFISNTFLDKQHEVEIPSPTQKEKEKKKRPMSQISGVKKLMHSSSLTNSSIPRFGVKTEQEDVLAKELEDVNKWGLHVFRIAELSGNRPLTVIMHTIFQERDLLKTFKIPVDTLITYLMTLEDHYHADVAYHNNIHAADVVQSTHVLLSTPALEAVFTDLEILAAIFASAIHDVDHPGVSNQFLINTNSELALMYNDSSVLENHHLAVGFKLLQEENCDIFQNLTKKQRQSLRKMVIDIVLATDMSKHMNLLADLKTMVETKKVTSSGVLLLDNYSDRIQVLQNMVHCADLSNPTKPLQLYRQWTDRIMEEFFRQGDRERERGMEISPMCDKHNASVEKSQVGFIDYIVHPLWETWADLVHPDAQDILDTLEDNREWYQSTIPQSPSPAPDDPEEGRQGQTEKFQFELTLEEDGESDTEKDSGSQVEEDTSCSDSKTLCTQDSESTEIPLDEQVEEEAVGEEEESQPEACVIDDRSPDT

Regarding `NC(=O)Cc1ccc(Nc2cc(C3CCCC3)nc3c2CCC3)cc1` [US11401286, Example 247], the IC50 (in general, the midpoint of a concentration-inhibition curve) in test [1] was greater than 1000 nM; in test [2], less than 1000 nM.
On to `Cc1nc(Nc2ccc(CC(=O)O)cc2)nc(-c2ccc(Cl)s2)n1` [US11401286, Example 22], for which the concentration for half-maximal inhibition (IC50) in test [1] and in test [2] was greater than 1000 nM throughout.
`N#CC1CCC(c2cc(Nc3ccc(CC(N)=O)cc3)c3c(n2)CCC3)C1` (centres undefined) [US11401286, Example 138]: the IC50 is greater than 1000 nM in test [1] and less than 1000 nM in test [2].
For `OCCc1ccc(Nc2cc(-c3cccc(Cl)c3)nc3c2CCC3)cn1` [US11401286, Example 90], in that order: greater than 1000 nM and greater than 1000 nM.
In test [2], `CCc1c(C)nc(-c2ccc(Cl)s2)nc1Nc1ccc(Cn2nccn2)cc1` [US11401286, Example 300] returned an IC50 of less than 1000 nM.
